Test results from the supplement of paper PMC11208160.

Test: recombinant UMI read abundance after kanamycin selection (control-corrected) (log10(CPM+1)); higher = more efficient recombination; extreme values may be limits of the assay; sequences stand for … in AGTGCAGAGAAAATCGGCCAGTTTTCTCTGCCTGCAGTCCGCATGCCGTGGGACCCCTTGGGTTCTAACCTGTTGCCTAGATTTATGCAGCGGACTGCCTTTCTCCCAAAGTGATAAACCGG…AGGTTGGTTTCACT; site = the 11-nt donor
Protocol: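 Pooled E. coli donor-specificity screen for the IS621 bridge recombinase. Each library member carries a reprogrammed 11-nt donor and a full-length LE bridge RNA expressed in cis from the natural promoter, with a paired donor-binding loop (8-nt LDG + 4-nt RDG) and a target-binding loop fixed to T5. It is co-electroporated with a T5 target plasmid; recombinase is induced with 0.07 mM IPTG and recombinants are selected on kanamycin. UMIs are counted as CPM, averaged over two biological replicates and corrected by the unselected control. Molecule = full bridge RNA written as DNA, built from the T5 scaffold: LDG = donor specificity nt 1-8, RDG = reverse complement of nt 8-11.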
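Note: IS621 bridge recombinase in Escherichia coli cells against a fixed T5 target plasmid.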

| Sequence | recombinant UMI read abundance (log10) |
| --- | --- |
| AGCACGACATGGACCGGTTTTCCCGGTAATCCGTATTTGTC (site AGCACGACTGA) | 1.47 |
| AGCATAGCATGGACCGGTTTTCCCGGTAATCCGTATTTGTT (site AGCATAGCTAA) | 1.99 |
| AGCATAGCATGGACCGGTTTTCCCGGTAATCCGTATTTGTT (site AGCCTAGCTAA) | 0.0149 |
| AGCATAGCATGGACCGGTTTTCCCGGTAATCCGTATTTGTT (site AGCGTAGCTAA) | 0.0357 |
| AGCATAGCATGGACCGGTTTTCCCGGTAATCCGTATTTGTT (site AGCTTAGCTAA) | 0.00966 |
| AGCCAAACATGGACCGGTTTTCCCGGTAATCCGTATTTGAG (site AGCCAAACTCT) | 1.88 |
| AGCCAATCATGGACCGGTTTTCCCGGTAATCCGTATTTGGA (site AGCCAATCTTC) | 1.67 |
| AGCCATTCATGGACCGGTTTTCCCGGTAATCCGTATTTGAC (site AGCCATTCTGT) | 2.1 |
| AGCCATTCATGGACCGGTTTTCCCGGTAATCCGTATTTGAC (site AGCCCTTCTGT) | 0 |
| AGCCATTCATGGACCGGTTTTCCCGGTAATCCGTATTTGAC (site AGCCGTTCTGT) | 0 |
| AGCCATTCATGGACCGGTTTTCCCGGTAATCCGTATTTGAC (site AGCCTTTCTGT) | 0 |
| AGCCCATCATGGACCGGTTTTCCCGGTAATCCGTATTTGCT (site AGCCCATCTAG) | 1.83 |
| AGCCCTGCATGGACCGGTTTTCCCGGTAATCCGTATTTGGG (site AGCCCTGCTCC) | 0.336 |
| AGCCCTTCATGGACCGGTTTTCCCGGTAATCCGTATTTGAC (site AGCCATTCTGT) | 0 |
| AGCCCTTCATGGACCGGTTTTCCCGGTAATCCGTATTTGAC (site AGCCCTTCTGT) | 2.11 |
| AGCCCTTCATGGACCGGTTTTCCCGGTAATCCGTATTTGAC (site AGCCGTTCTGT) | 0 |
| AGCCCTTCATGGACCGGTTTTCCCGGTAATCCGTATTTGAC (site AGCCTTTCTGT) | 0.00743 |
| AGCCTAGCATGGACCGGTTTTCCCGGTAATCCGTATTTGGT (site AGCCTAGCTAA) | 0.168 |
| AGCCTAGCATGGACCGGTTTTCCCGGTAATCCGTATTTGGT (site AGCCTAGCTAC) | 0 |
| AGCCTAGCATGGACCGGTTTTCCCGGTAATCCGTATTTGGT (site AGCCTAGCTAG) | 0.00404 |
| AGCCTAGCATGGACCGGTTTTCCCGGTAATCCGTATTTGGT (site AGCCTAGCTAT) | 0.00284 |
| AGCCTGGCATGGACCGGTTTTCCCGGTAATCCGTATTTGTT (site AGCCTAGCTAA) | 0 |

| Sequence | recombinant UMI read abundance (log10) |
| --- | --- |
| AGCCTGGCATGGACCGGTTTTCCCGGTAATCCGTATTTGTT (site AGCCTCGCTAA) | 0.0194 |
| AGCCTGGCATGGACCGGTTTTCCCGGTAATCCGTATTTGTT (site AGCCTGGCTAA) | 0.0154 |
| AGCCTGGCATGGACCGGTTTTCCCGGTAATCCGTATTTGTT (site AGCCTTGCTAA) | 0.0159 |
| AGCCTGTCATGGACCGGTTTTCCCGGTAATCCGTATTTGAC (site AGCCTATCTGT) | 0 |
| AGCCTGTCATGGACCGGTTTTCCCGGTAATCCGTATTTGAC (site AGCCTCTCTGT) | 0 |
| AGCCTGTCATGGACCGGTTTTCCCGGTAATCCGTATTTGAC (site AGCCTGTCTGT) | 0 |
| AGCCTGTCATGGACCGGTTTTCCCGGTAATCCGTATTTGAC (site AGCCTTTCTGT) | 0 |
| AGCCTTCCATGGACCGGTTTTCCCGGTAATCCGTATTTGAC (site AGCCTTACTGT) | 0 |
| AGCCTTCCATGGACCGGTTTTCCCGGTAATCCGTATTTGAC (site AGCCTTCCTGT) | 0 |
| AGCCTTCCATGGACCGGTTTTCCCGGTAATCCGTATTTGAC (site AGCCTTGCTGT) | 0 |
| AGCCTTCCATGGACCGGTTTTCCCGGTAATCCGTATTTGAC (site AGCCTTTCTGT) | 0 |
| AGCCTTGCATGGACCGGTTTTCCCGGTAATCCGTATTTGTT (site AGCCTAGCTAA) | 0.00391 |
| AGCCTTGCATGGACCGGTTTTCCCGGTAATCCGTATTTGTT (site AGCCTCGCTAA) | 0.0115 |
| AGCCTTGCATGGACCGGTTTTCCCGGTAATCCGTATTTGTT (site AGCCTGGCTAA) | 0.0183 |
| AGCCTTGCATGGACCGGTTTTCCCGGTAATCCGTATTTGTT (site AGCCTTGCTAA) | 0 |
| AGCCTTTCATGGACCGGTTTTCCCGGTAATCCGTATTTGAG (site AGCCTTTCTAT) | 0 |
| AGCCTTTCATGGACCGGTTTTCCCGGTAATCCGTATTTGAG (site AGCCTTTCTCT) | 0 |
| AGCCTTTCATGGACCGGTTTTCCCGGTAATCCGTATTTGAG (site AGCCTTTCTGT) | 0 |
| AGCCTTTCATGGACCGGTTTTCCCGGTAATCCGTATTTGAG (site AGCCTTTCTTT) | 0.007 |
| AGCGATACATGGACCGGTTTTCCCGGTAATCCGTATTTGAA (site AGCGATACTTT) | 1.65 |
| AGCGTAACATGGACCGGTTTTCCCGGTAATCCGTATTTGAC (site AGCGTAACTGT) | 2.86 |
| AGCGTAGCATGGACCGGTTTTCCCGGTAATCCGTATTTGCA (site AGCGTAGCTTG) | 2.87 |

| Sequence | recombinant UMI read abundance (log10) |
| --- | --- |
| AGCGTAGCATGGACCGGTTTTCCCGGTAATCCGTATTTGTT (site AGCATAGCTAA) | 0.838 |
| AGCGTAGCATGGACCGGTTTTCCCGGTAATCCGTATTTGTT (site AGCCTAGCTAA) | 0.0274 |
| AGCGTAGCATGGACCGGTTTTCCCGGTAATCCGTATTTGTT (site AGCGTAGCTAA) | 1.33 |
| AGCGTAGCATGGACCGGTTTTCCCGGTAATCCGTATTTGTT (site AGCTTAGCTAA) | 0.00472 |
| AGCGTGACATGGACCGGTTTTCCCGGTAATCCGTATTTGCC (site AGCGTGACTGG) | 1.78 |
| AGCGTTACATGGACCGGTTTTCCCGGTAATCCGTATTTGTA (site AGCGTTACTTA) | 0.651 |
| AGCTCAACATGGACCGGTTTTCCCGGTAATCCGTATTTGGG (site AGCTCAACTCC) | 0 |
| AGCTCAACATGGACCGGTTTTCCCGGTAATCCGTATTTGGG (site AGCTCACCTCC) | 0 |
| AGCTCAACATGGACCGGTTTTCCCGGTAATCCGTATTTGGG (site AGCTCAGCTCC) | 0 |
| AGCTCAACATGGACCGGTTTTCCCGGTAATCCGTATTTGGG (site AGCTCATCTCC) | 0 |
| AGCTCAGCATGGACCGGTTTTCCCGGTAATCCGTATTTGGC (site AGCTCAGCTAC) | 0.396 |
| AGCTCAGCATGGACCGGTTTTCCCGGTAATCCGTATTTGGC (site AGCTCAGCTCC) | 0.00906 |
| AGCTCAGCATGGACCGGTTTTCCCGGTAATCCGTATTTGGC (site AGCTCAGCTGC) | 2.19 |
| AGCTCAGCATGGACCGGTTTTCCCGGTAATCCGTATTTGGC (site AGCTCAGCTTC) | 0.398 |
| AGCTCAGCATGGACCGGTTTTCCCGGTAATCCGTATTTGGG (site AACTCAGCTCC) | 0 |
| AGCTCAGCATGGACCGGTTTTCCCGGTAATCCGTATTTGGG (site ACCTCAGCTCC) | 0.026 |
| AGCTCAGCATGGACCGGTTTTCCCGGTAATCCGTATTTGGG (site AGATCAGCTCC) | 0.0131 |
| AGCTCAGCATGGACCGGTTTTCCCGGTAATCCGTATTTGGG (site AGCACAGCTCC) | 0.212 |
| AGCTCAGCATGGACCGGTTTTCCCGGTAATCCGTATTTGGG (site AGCCCAGCTCC) | 0.263 |
| AGCTCAGCATGGACCGGTTTTCCCGGTAATCCGTATTTGGG (site AGCGCAGCTCC) | 0.0219 |
| AGCTCAGCATGGACCGGTTTTCCCGGTAATCCGTATTTGGG (site AGCTAAGCTCC) | 0.0351 |
